# Laboratory results taken from the supplement of paper PMC10307832.
# Key:
# Test in all cases: relative viability (nuclei count vs DMSO), 5 days (fraction); higher = more cells survive
# IMD-0354 + Crizotinib = compound: O=C(Nc1cc(C(F)(F)F)cc(C(F)(F)F)c1)c1cc(Cl)ccc1O [IMD-0354] + C[C@@H](Oc1cc(-c2cnn(C3CCNCC3)c2)cnc1N)c1c(Cl)ccc(F)c1Cl [Crizotinib] (partner 1 µM)
# Outline: (§1)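 Medians of duplicate plates are given as relative viability. That measure is the nuclei count in treated wells divided by the count in vehicle wells. Counts were taken on 4× images of lung cancer cell lines in 1536-well plates, 5 days after pin-tool dosing the day after seeding with one drug alone or a fixed anchor-drug dose plus five library-drug doses (not always all listed) in √10 steps.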
# IMD-0354 + Decitabine = compound: O=C(Nc1cc(C(F)(F)F)cc(C(F)(F)F)c1)c1cc(Cl)ccc1O [IMD-0354] + Nc1ncn([C@H]2C[C@H](O)[C@@H](CO)O2)c(=O)n1 [Decitabine] (partner 2 µM)
# Outline: as §1
# CX-5461 + Palbociclib = compound: Cc1cnc(CNC(=O)c2c(=O)c3ccc(N4CCCN(C)CC4)nc3n3c2sc2ccccc23)cn1 [CX-5461] + CC(=O)c1c(C)c2cnc(Nc3ccc(N4CCNCC4)cn3)nc2n(C2CCCC2)c1=O [Palbociclib] (partner 0.5 µM)
# Outline: as §1
# CX-5461 + AZD7762 = compound: Cc1cnc(CNC(=O)c2c(=O)c3ccc(N4CCCN(C)CC4)nc3n3c2sc2ccccc23)cn1 [CX-5461] + NC(=O)Nc1cc(-c2cccc(F)c2)sc1C(=O)N[C@H]1CCCNC1 [AZD7762] (partner 0.2 µM)
# Outline: as §1
cell line,measurement,setting,value
LCLC-97TM1,relative viability,IMD-0354 + Crizotinib; first compound 0.1265 µM,0.432
same,relative viability,IMD-0354 + Crizotinib; first compound 0.4 µM,0.211
same,relative viability,IMD-0354 + Crizotinib; first compound 1.265 µM,0.265
same,relative viability,IMD-0354 + Crizotinib; first compound 4 µM,0.146
same,relative viability,IMD-0354 + Decitabine; first compound 0.04 µM,0.232
same,relative viability,IMD-0354 + Decitabine; first compound 0.1265 µM,0.257
same,relative viability,IMD-0354 + Decitabine; first compound 0.4 µM,0.199
same,relative viability,IMD-0354 + Decitabine; first compound 1.265 µM,0.162
same,relative viability,IMD-0354 + Decitabine; first compound 4 µM,0.115
same,relative viability,CX-5461 + Palbociclib; first compound 0.01 µM,0.211
same,relative viability,CX-5461 + Palbociclib; first compound 0.03162 µM,0.254
same,relative viability,CX-5461 + Palbociclib; first compound 0.1 µM,0.198
same,relative viability,CX-5461 + Palbociclib; first compound 0.3162 µM,0.208
same,relative viability,CX-5461 + Palbociclib; first compound 1 µM,0.227
same,relative viability,CX-5461 + AZD7762; first compound 0.01 µM,0.279
same,relative viability,CX-5461 + AZD7762; first compound 0.03162 µM,0.424
same,relative viability,CX-5461 + AZD7762; first compound 0.1 µM,0.177
same,relative viability,CX-5461 + AZD7762; first compound 1 µM,0.237
NCI-H727,relative viability,IMD-0354 + Crizotinib; first compound 0.04 µM,0.688
same,relative viability,IMD-0354 + Crizotinib; first compound 0.1265 µM,0.827
same,relative viability,IMD-0354 + Crizotinib; first compound 0.4 µM,0.484
same,relative viability,IMD-0354 + Crizotinib; first compound 1.265 µM,0.547
same,relative viability,IMD-0354 + Crizotinib; first compound 4 µM,0.385
same,relative viability,IMD-0354 + Decitabine; first compound 0.04 µM,0.827
same,relative viability,IMD-0354 + Decitabine; first compound 0.1265 µM,0.864
same,relative viability,IMD-0354 + Decitabine; first compound 0.4 µM,0.788
same,relative viability,IMD-0354 + Decitabine; first compound 1.265 µM,0.502
same,relative viability,IMD-0354 + Decitabine; first compound 4 µM,0.405
same,relative viability,CX-5461 + Palbociclib; first compound 0.01 µM,0.601
same,relative viability,CX-5461 + Palbociclib; first compound 0.03162 µM,0.601
same,relative viability,CX-5461 + Palbociclib; first compound 0.1 µM,0.717
same,relative viability,CX-5461 + Palbociclib; first compound 0.3162 µM,0.65
same,relative viability,CX-5461 + Palbociclib; first compound 1 µM,0.637
same,relative viability,CX-5461 + AZD7762; first compound 0.01 µM,0.48
same,relative viability,CX-5461 + AZD7762; first compound 0.03162 µM,0.709
same,relative viability,CX-5461 + AZD7762; first compound 0.1 µM,0.473
same,relative viability,CX-5461 + AZD7762; first compound 0.3162 µM,0.648
same,relative viability,CX-5461 + AZD7762; first compound 1 µM,0.566
NCI-H1355,relative viability,IMD-0354 + Crizotinib; first compound 0.04 µM,1.29
same,relative viability,IMD-0354 + Crizotinib; first compound 0.1265 µM,1.04
same,relative viability,IMD-0354 + Crizotinib; first compound 0.4 µM,0.956
same,relative viability,IMD-0354 + Crizotinib; first compound 1.265 µM,0.97
same,relative viability,IMD-0354 + Crizotinib; first compound 4 µM,0.242
same,relative viability,IMD-0354 + Decitabine; first compound 0.04 µM,0.397
same,relative viability,IMD-0354 + Decitabine; first compound 0.1265 µM,0.373
same,relative viability,IMD-0354 + Decitabine; first compound 0.4 µM,0.327
same,relative viability,IMD-0354 + Decitabine; first compound 1.265 µM,0.274
same,relative viability,IMD-0354 + Decitabine; first compound 4 µM,0.21
same,relative viability,CX-5461 + Palbociclib; first compound 0.01 µM,0.424
same,relative viability,CX-5461 + Palbociclib; first compound 0.03162 µM,0.467
same,relative viability,CX-5461 + Palbociclib; first compound 0.1 µM,0.41
same,relative viability,CX-5461 + Palbociclib; first compound 0.3162 µM,0.417
same,relative viability,CX-5461 + Palbociclib; first compound 1 µM,0.388
same,relative viability,CX-5461 + AZD7762; first compound 0.01 µM,0.75
same,relative viability,CX-5461 + AZD7762; first compound 0.03162 µM,0.833
same,relative viability,CX-5461 + AZD7762; first compound 0.1 µM,0.613
same,relative viability,CX-5461 + AZD7762; first compound 0.3162 µM,0.78
same,relative viability,CX-5461 + AZD7762; first compound 1 µM,0.288
HOP-62,relative viability,IMD-0354 + Crizotinib; first compound 0.04 µM,0.999
same,relative viability,IMD-0354 + Crizotinib; first compound 0.1265 µM,1.09
same,relative viability,IMD-0354 + Crizotinib; first compound 0.4 µM,0.926
same,relative viability,IMD-0354 + Crizotinib; first compound 1.265 µM,0.546
same,relative viability,IMD-0354 + Crizotinib; first compound 4 µM,0.168
same,relative viability,IMD-0354 + Decitabine; first compound 0.04 µM,0.217
same,relative viability,IMD-0354 + Decitabine; first compound 0.1265 µM,0.226
same,relative viability,IMD-0354 + Decitabine; first compound 0.4 µM,0.208
same,relative viability,IMD-0354 + Decitabine; first compound 1.265 µM,0.17
same,relative viability,IMD-0354 + Decitabine; first compound 4 µM,0.0936
same,relative viability,CX-5461 + Palbociclib; first compound 0.01 µM,0.415
same,relative viability,CX-5461 + Palbociclib; first compound 0.03162 µM,0.446
same,relative viability,CX-5461 + Palbociclib; first compound 0.1 µM,0.461
same,relative viability,CX-5461 + Palbociclib; first compound 0.3162 µM,0.413
same,relative viability,CX-5461 + Palbociclib; first compound 1 µM,0.415
same,relative viability,CX-5461 + AZD7762; first compound 0.01 µM,0.643
same,relative viability,CX-5461 + AZD7762; first compound 0.03162 µM,0.854
same,relative viability,CX-5461 + AZD7762; first compound 0.1 µM,0.424
same,relative viability,CX-5461 + AZD7762; first compound 0.3162 µM,0.194
same,relative viability,CX-5461 + AZD7762; first compound 1 µM,0.356
NCI-H2085,relative viability,IMD-0354 + Crizotinib; first compound 0.04 µM,0.613
same,relative viability,IMD-0354 + Crizotinib; first compound 0.1265 µM,0.753
same,relative viability,IMD-0354 + Crizotinib; first compound 0.4 µM,0.788
same,relative viability,IMD-0354 + Crizotinib; first compound 1.265 µM,0.511
same,relative viability,IMD-0354 + Crizotinib; first compound 4 µM,0.315
same,relative viability,IMD-0354 + Decitabine; first compound 0.04 µM,0.59
same,relative viability,IMD-0354 + Decitabine; first compound 0.1265 µM,0.516
same,relative viability,IMD-0354 + Decitabine; first compound 0.4 µM,0.551
same,relative viability,IMD-0354 + Decitabine; first compound 1.265 µM,0.421
same,relative viability,IMD-0354 + Decitabine; first compound 4 µM,0.337
same,relative viability,CX-5461 + Palbociclib; first compound 0.01 µM,0.453
same,relative viability,CX-5461 + Palbociclib; first compound 0.03162 µM,0.466
same,relative viability,CX-5461 + Palbociclib; first compound 0.1 µM,0.477
same,relative viability,CX-5461 + Palbociclib; first compound 0.3162 µM,0.454
same,relative viability,CX-5461 + Palbociclib; first compound 1 µM,0.457
same,relative viability,CX-5461 + AZD7762; first compound 0.01 µM,1.05
same,relative viability,CX-5461 + AZD7762; first compound 0.03162 µM,1.03
same,relative viability,CX-5461 + AZD7762; first compound 0.1 µM,0.918
same,relative viability,CX-5461 + AZD7762; first compound 0.3162 µM,1.04
same,relative viability,CX-5461 + AZD7762; first compound 1 µM,0.719
